Measured values: the supplement of paper PMC10307832

Experiments:
Test in all cases: relative viability (nuclei count vs DMSO), 5 days (fraction); higher = more cells survive
[1] = compound: CN[C@@H]1C[C@H]2O[C@@](C)([C@@H]1OC)n1c3ccccc3c3c4c(c5c6ccccc6n2c5c31)C(=O)NC4 [Staurosporine] + Cc1nc(NC(=O)N2CCC[C@H]2C(N)=O)sc1-c1ccnc(C(C)(C)C(F)(F)F)c1 [Alpelisib] (partner 2 µM)
Procedure, shortened: (§1)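 Lung cancer cell lines in 1536-well plates were dosed by pin tool the day after seeding, either with one drug alone or with a fixed anchor-drug dose plus five library-drug doses (not always all listed) in √10 steps. After 5 days, cells were fixed and their nuclei stained in one step (final 0.05% Triton X-100, 1% formaldehyde, 1 ug/ml Hoechst), then counted on 4× images. Relative viability is the nuclei count in treated wells divided by that in vehicle wells. Values are medians of duplicate plates.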

[2] = compound: CN[C@@H]1C[C@H]2O[C@@](C)([C@@H]1OC)n1c3ccccc3c3c4c(c5c6ccccc6n2c5c31)C(=O)NC4 [Staurosporine] + O=C(CCCCCCC(=O)Nc1ccccc1)NO [Vorinostat] (partner 1 µM)
Procedure, shortened: as §1

[3] = compound: O=c1[nH]cc(F)c(=O)[nH]1 [5-Fluorouracil] + Cc1cc(Nc2cc(N3CCN(C)CC3)nc(Sc3ccc(NC(=O)C4CC4)cc3)n2)n[nH]1 [Tozasertib] (partner 0.1 µM)
Procedure, shortened: as §1

[4] = compound: O=c1[nH]cc(F)c(=O)[nH]1 [5-Fluorouracil] + Cc1nc(Nc2ncc(C(=O)Nc3c(C)cccc3Cl)s2)cc(N2CCN(CCO)CC2)n1 [Dasatinib] (partner 0.075 µM)
Procedure, shortened: as §1

## NCI-H2085
[1]; first compound 0.005 µM
  relative viability: 0.609
[1]; first compound 0.01581 µM
  relative viability: 0.53
[1]; first compound 0.05 µM
  relative viability: 0.495
[1]; first compound 0.1581 µM
  relative viability: 0.343
[1]; first compound 0.5 µM
  relative viability: 0.28
[2]; first compound 0.005 µM
  relative viability: 0.58
[2]; first compound 0.01581 µM
  relative viability: 0.296
[2]; first compound 0.05 µM
  relative viability: 0.407
[2]; first compound 0.1581 µM
  relative viability: 0.229
[2]; first compound 0.5 µM
  relative viability: 0.183
[3]; first compound 0.02 µM
  relative viability: 0.867
[3]; first compound 0.2 µM
  relative viability: 0.784
[3]; first compound 0.6325 µM
  relative viability: 0.828
[3]; first compound 2 µM
  relative viability: 0.608
[4]; first compound 0.02 µM
  relative viability: 0.192
[4]; first compound 0.2 µM
  relative viability: 0.218
[4]; first compound 0.6325 µM
  relative viability: 0.21
[4]; first compound 2 µM
  relative viability: 0.301

## LC-2-ad
[1]; first compound 0.005 µM
  relative viability: 0.178
[1]; first compound 0.01581 µM
  relative viability: 0.338
[1]; first compound 0.05 µM
  relative viability: 0.237
[1]; first compound 0.1581 µM
  relative viability: 0.0434
[1]; first compound 0.5 µM
  relative viability: 0.0442
[2]; first compound 0.005 µM
  relative viability: 0.635
[2]; first compound 0.01581 µM
  relative viability: 0.158
[2]; first compound 0.05 µM
  relative viability: 0.217
[2]; first compound 0.1581 µM
  relative viability: 0.13
[2]; first compound 0.5 µM
  relative viability: 0.0772
[3]; first compound 0.02 µM
  relative viability: 0.443
[3]; first compound 0.2 µM
  relative viability: 0.382
[3]; first compound 0.6325 µM
  relative viability: 0.365
[3]; first compound 2 µM
  relative viability: 0.293
[4]; first compound 0.02 µM
  relative viability: 0.785
[4]; first compound 0.2 µM
  relative viability: 0.354
[4]; first compound 0.6325 µM
  relative viability: 0.328
[4]; first compound 2 µM
  relative viability: 0.209

## 201T
[1]; first compound 0.005 µM
  relative viability: 1.03
[1]; first compound 0.01581 µM
  relative viability: 0.973
[1]; first compound 0.05 µM
  relative viability: 0.874
[1]; first compound 0.1581 µM
  relative viability: 0.715
[1]; first compound 0.5 µM
  relative viability: 0.59
[2]; first compound 0.005 µM
  relative viability: 0.935
[2]; first compound 0.05 µM
  relative viability: 0.699
[2]; first compound 0.1581 µM
  relative viability: 0.354
[2]; first compound 0.5 µM
  relative viability: 0.245
[3]; first compound 0.02 µM
  relative viability: 0.916
[3]; first compound 0.2 µM
  relative viability: 0.477
[3]; first compound 0.6325 µM
  relative viability: 0.369
[3]; first compound 2 µM
  relative viability: 0.313
[4]; first compound 0.02 µM
  relative viability: 0.592
[4]; first compound 0.2 µM
  relative viability: 0.555
[4]; first compound 0.6325 µM
  relative viability: 0.348
[4]; first compound 2 µM
  relative viability: 0.284

## NCI-H2023
[1]; first compound 0.005 µM
  relative viability: 0.56
[1]; first compound 0.01581 µM
  relative viability: 0.28
[1]; first compound 0.05 µM
  relative viability: 0.274
[1]; first compound 0.1581 µM
  relative viability: 0.15
[1]; first compound 0.5 µM
  relative viability: 0.0702
[2]; first compound 0.005 µM
  relative viability: 0.313
[2]; first compound 0.01581 µM
  relative viability: 0.14
[2]; first compound 0.05 µM
  relative viability: 0.0786
[2]; first compound 0.1581 µM
  relative viability: 0.0748
[2]; first compound 0.5 µM
  relative viability: 0.0408
[3]; first compound 0.02 µM
  relative viability: 0.441
[3]; first compound 0.2 µM
  relative viability: 0.146
[3]; first compound 0.6325 µM
  relative viability: 0.112
[3]; first compound 2 µM
  relative viability: 0.0913
[4]; first compound 0.02 µM
  relative viability: 0.542
[4]; first compound 0.2 µM
  relative viability: 0.185
[4]; first compound 0.6325 µM
  relative viability: 0.102
[4]; first compound 2 µM
  relative viability: 0.0866

## NCI-H1395
[1]; first compound 0.005 µM
  relative viability: 1.05
[1]; first compound 0.01581 µM
  relative viability: 0.474
[1]; first compound 0.05 µM
  relative viability: 0.366
[1]; first compound 0.1581 µM
  relative viability: 0.498
[1]; first compound 0.5 µM
  relative viability: 0.271
[2]; first compound 0.005 µM
  relative viability: 0.447
[2]; first compound 0.01581 µM
  relative viability: 0.264
[2]; first compound 0.05 µM
  relative viability: 0.288
[2]; first compound 0.1581 µM
  relative viability: 0.299
[2]; first compound 0.5 µM
  relative viability: 0.228
[3]; first compound 0.02 µM
  relative viability: 0.652
[3]; first compound 0.2 µM
  relative viability: 0.837
[3]; first compound 0.6325 µM
  relative viability: 0.737
[3]; first compound 2 µM
  relative viability: 0.8
[4]; first compound 0.02 µM
  relative viability: 0.39
[4]; first compound 0.2 µM
  relative viability: 0.45
[4]; first compound 0.6325 µM
  relative viability: 0.367
[4]; first compound 2 µM
  relative viability: 0.442

## NCI-H23
[1]; first compound 0.005 µM
  relative viability: 0.437
[1]; first compound 0.01581 µM
  relative viability: 0.317
[1]; first compound 0.05 µM
  relative viability: 0.218
[1]; first compound 0.1581 µM
  relative viability: 0.206
[1]; first compound 0.5 µM
  relative viability: 0.131
[2]; first compound 0.005 µM
  relative viability: 0.506
[2]; first compound 0.01581 µM
  relative viability: 0.0921
[2]; first compound 0.05 µM
  relative viability: 0.0962
[2]; first compound 0.1581 µM
  relative viability: 0.143
[2]; first compound 0.5 µM
  relative viability: 0.101
[3]; first compound 0.02 µM
  relative viability: 0.544
[3]; first compound 0.2 µM
  relative viability: 0.327
[3]; first compound 0.6325 µM
  relative viability: 0.318
[3]; first compound 2 µM
  relative viability: 0.189
[4]; first compound 0.02 µM
  relative viability: 0.789
[4]; first compound 0.2 µM
  relative viability: 0.991
[4]; first compound 0.6325 µM
  relative viability: 0.475
[4]; first compound 2 µM
  relative viability: 0.278

## LU99A
[1]; first compound 0.005 µM
  relative viability: 0.341
[1]; first compound 0.01581 µM
  relative viability: 0.153
[1]; first compound 0.05 µM
  relative viability: 0.19
[1]; first compound 0.1581 µM
  relative viability: 0.105
[1]; first compound 0.5 µM
  relative viability: 0.118
[2]; first compound 0.005 µM
  relative viability: 0.452
[2]; first compound 0.01581 µM
  relative viability: 0.16
[2]; first compound 0.05 µM
  relative viability: 0.173
[2]; first compound 0.1581 µM
  relative viability: 0.128
[2]; first compound 0.5 µM
  relative viability: 0.107
[3]; first compound 0.02 µM
  relative viability: 0.325
[3]; first compound 0.2 µM
  relative viability: 0.243
[3]; first compound 0.6325 µM
  relative viability: 0.269
[3]; first compound 2 µM
  relative viability: 0.207
[4]; first compound 0.02 µM
  relative viability: 0.575
[4]; first compound 0.2 µM
  relative viability: 0.655
[4]; first compound 0.6325 µM
  relative viability: 0.567
[4]; first compound 2 µM
  relative viability: 0.4

## NCI-H1437
[1]; first compound 0.005 µM
  relative viability: 0.918
[1]; first compound 0.01581 µM
  relative viability: 0.663
[1]; first compound 0.05 µM
  relative viability: 0.487
[1]; first compound 0.1581 µM
  relative viability: 0.413
[1]; first compound 0.5 µM
  relative viability: 0.242
[2]; first compound 0.005 µM
  relative viability: 0.577
[2]; first compound 0.01581 µM
  relative viability: 0.469
[2]; first compound 0.05 µM
  relative viability: 0.302
[2]; first compound 0.1581 µM
  relative viability: 0.235
[2]; first compound 0.5 µM
  relative viability: 0.169
[3]; first compound 0.02 µM
  relative viability: 0.34
[3]; first compound 0.2 µM
  relative viability: 0.259
[3]; first compound 0.6325 µM
  relative viability: 0.191
[3]; first compound 2 µM
  relative viability: 0.139
[4]; first compound 0.02 µM
  relative viability: 0.369
[4]; first compound 0.2 µM
  relative viability: 0.183
[4]; first compound 0.6325 µM
  relative viability: 0.189
[4]; first compound 2 µM
  relative viability: 0.137

## ABC-1
[1]; first compound 0.005 µM
  relative viability: 0.535
[1]; first compound 0.01581 µM
  relative viability: 0.255
[1]; first compound 0.05 µM
  relative viability: 0.168
[1]; first compound 0.1581 µM
  relative viability: 0.182
[1]; first compound 0.5 µM
  relative viability: 0.0986
[2]; first compound 0.005 µM
  relative viability: 0.667
[2]; first compound 0.01581 µM
  relative viability: 0.411
[2]; first compound 0.05 µM
  relative viability: 0.454
[2]; first compound 0.1581 µM
  relative viability: 0.147
[2]; first compound 0.5 µM
  relative viability: 0.117
[3]; first compound 0.02 µM
  relative viability: 0.163
[3]; first compound 0.2 µM
  relative viability: 0.184
[3]; first compound 0.6325 µM
  relative viability: 0.171
[3]; first compound 2 µM
  relative viability: 0.195
[4]; first compound 0.02 µM
  relative viability: 0.561
[4]; first compound 0.2 µM
  relative viability: 0.662
[4]; first compound 0.6325 µM
  relative viability: 0.576
[4]; first compound 2 µM
  relative viability: 0.558
